# Experimental data: patent US12590094B2, “Compounds for the treatment of neurodegenerative and metabolic disorders” (UNIVERSITY OF FLORIDA RESEARCH FOUNDATION, INCORPORATED, priority 2019, dated 2026)
# System: Cells exposed to TPrP
# Experiment: cells
# Conditions: read-out: Viability EC50
row,SMILES,EC50
1,COc1ccc(-c2cc(C(C)(C)C)n3ncc(C(=O)NCCCn4ccnc4)c3n2)cc1 [SR0-28464],1.2 nM
2,COc1ccc(-c2cc(C(F)(F)F)n3ncc(C(=O)NCCCn4ccnc4C(F)(F)F)c3n2)cc1 [SR0-28466],20 nM
3,COc1ccc(-c2cc(C(F)(F)F)n3ncc(C(=O)NCCCn4ccnc4F)c3n2)cc1 [SR0-28467],16 nM
4,CCc1nccn1CCCNC(=O)c1cnn2c(C(F)(F)F)cc(-c3ccc(OC)cc3)nc12 [SR0-29244],25 nM
5,CCOc1ccc(-c2cc(C)n3ncc(C(=O)NCCCn4ccnc4C)c3n2)cc1 [SR0-29245],1.2 nM
6,Cc1nccn1CCCNC(=O)c1cnn2c(C)cc(-c3ccc(OC(F)(F)F)cc3)nc12 [SR0-29246],2 nM
7,Cc1nccn1CCCNC(=O)c1cnn2c(C)cc(-c3ccc4c(c3)OCO4)nc12 [SR0-29247],2.2 nM
8,COc1cc(-c2cc(C)n3ncc(C(=O)NCCCn4ccnc4C)c3n2)cc(OC)c1OC [SR0-29248],4 nM
9,COc1ccc(-c2cc(N3CCCC3)n3ncc(C(=O)NCCCn4ccnc4C)c3n2)cc1 [SR0-29249],2.2 nM
10,COc1ccc(-c2cc(C(F)(F)F)n3nc(C)c(C(=O)NCCCn4ccnc4C)c3n2)cc1 [SR0-29250],3.6 nM
11,Cc1nccn1CCCNC(=O)c1cnn2c(C(C)(C)C)cc(-c3ccc4c(c3)OCO4)nc12 [SR0-31104],10 nM
12,Cc1c(-c2ccc3c(c2)OCO3)nc2c(C(=O)NCCCn3ccnc3C)cnn2c1C [SR0-31106],30 nM
13,Cc1cc(-c2ccc3c(c2)OCO3)nc2c(C(=O)NCCCn3ccnc3S(C)(=O)=O)cnn12 [SR0-31110],> 50 nM
14,COc1ccc(-c2cc(C)n3ncc(C(=O)NCCCn4ccnc4)c3n2)cc1 [SR3-5170],1 nM
15,COCc1cc(-c2ccc(OC)cc2)nc2c(C(=O)NCCCn3ccnc3)cnn12 [SR3-5250],0.5 nM
16,COc1ccc(-c2cc(C(F)(F)F)n3ncc(C(=O)NCCn4ccnc4)c3n2)cc1 [SR3-5290],> 32 nM
17,CCc1cc(-c2ccc(OC)cc2)nc2c(C(=O)NCCCn3ccnc3)cnn12 [SR3-5310],0.6 nM
18,COc1ccc(-c2cc(C(C)C)n3ncc(C(=O)NCCCn4ccnc4)c3n2)cc1 [SR3-5311],0.4 nM
19,COc1ccc(-c2cc(C(F)(F)F)n3ncc(C(=O)NCCCCn4ccnc4)c3n2)cc1 [SR3-5312],6 nM
20,COc1ccc(-c2cc(C(F)(F)F)n3ncc(C(=O)NCCCn4cnc5ccccc54)c3n2)cc1 [SR3-5313],> 16 nM
21,COc1ccc(-c2cc(C(F)(F)F)n3ncc(C(=O)N(C)CCCn4ccnc4)c3n2)cc1 [SR3-5314],> 16 nM
22,CCOC(=O)c1c(CC)ncc2[nH]c3cc(OC)c(OC)cc3c12 [SR26084],~10000 nM

row,SMILES,EC50
1,CCc1c(C(=O)O)ncc2[nH]c3cc(OC)c(OC)cc3c12 [SR26266],> 4000 nM
2,CN(C)S(=O)(=O)c1ccc(Nc2nc(-c3ccncc3)cs2)cc1 [SR-27744],60 nM
3,Cc1nc(C)c(-c2csc(Nc3ccc(S(=O)(=O)N(C)C)cc3)n2)s1 [SR-27764],70 nM
4,CCNS(=O)(=O)c1ccc(Nc2nc(-c3ccncc3)cs2)cc1 [SR-27784],60 nM
5,CCNS(=O)(=O)c1ccc(Nc2nc(-c3sc(C)nc3C)cs2)cc1 [SR-27785],500 nM
6,CCCNS(=O)(=O)c1ccc(Nc2nc(-c3ccncc3)cs2)cc1 [SR-27804],170 nM
7,CCCNS(=O)(=O)c1ccc(Nc2nc(-c3sc(C)nc3C)cs2)cc1 [SR-27805],> 500 nM
8,CNS(=O)(=O)c1ccc(Nc2nc(-c3ccncc3)cs2)cc1 [SR-27806],60 nM
9,CCCCNS(=O)(=O)c1ccc(Nc2nc(-c3ccncc3)cs2)cc1 [SR-27808],170 nM
10,CCCCNS(=O)(=O)c1ccc(Nc2nc(-c3sc(C)nc3C)cs2)cc1 [SR-27809],> 500 nM
11,c1ccc2c(c1)CCC2Nc1nnc(Cc2ccncc2)c2ccccc12 (centres unmarked) [SR-27884],500 nM
12,c1ccc2c(c1)CC(Nc1nnc(Cc3ccncc3)c3ccccc13)C2 [SR-27885],200 nM
13,COc1ccc(CNc2nnc(Cc3ccncc3)c3ccccc23)cc1OC [SR-27886],140 nM
14,c1ccc2[nH]c(CNc3nnc(Cc4ccncc4)c4ccccc34)nc2c1 [SR-27887],200 nM
15,c1ccc2oc(CNc3nnc(Cc4ccncc4)c4ccccc34)nc2c1 [SR-27888],45 nM
16,c1ccc2c(c1)CC(Nc1nnc(Cc3ccncc3)c3ccccc13)CO2 (centres unmarked) [SR-27889],200 nM
17,c1ccc2c(c1)CC(CNc1nnc(Cc3ccncc3)c3ccccc13)CO2 (centres unmarked) [SR-27890],140 nM
18,c1ccc2c(c1)OCCC2Nc1nnc(Cc2ccncc2)c2ccccc12 (centres unmarked) [SR-27891],200 nM
19,c1ccc(OCCNc2nnc(Cc3ccncc3)c3ccccc23)cc1 [SR-27892],500 nM
20,O=S(=O)(c1ccc(Nc2nc(-c3ccncc3)cs2)cc1)N1CCCC1 [SR-28544],350 nM
21,Cc1nc(C)c(-c2csc(Nc3ccc(S(=O)(=O)N4CCCC4)cc3)n2)s1 [SR-28545],> 500 nM
22,O=S(=O)(c1ccc(Nc2nc(-c3ccncc3)cs2)cc1)N1CCCCC1 [SR-28546],400 nM

row,SMILES,EC50
1,Cc1nc(C)c(-c2csc(Nc3ccc(S(=O)(=O)N4CCCCC4)cc3)n2)s1 [SR-28547],> 500 nM
2,O=S(=O)(c1ccc(Nc2nc(-c3ccncc3)cs2)cc1)N1CCOCC1 [SR-28548],170 nM
3,Cc1nc(C)c(-c2csc(Nc3ccc(S(=O)(=O)N4CCOCC4)cc3)n2)s1 [SR-28549],400 nM
4,NS(=O)(=O)c1ccc(Nc2nc(-c3ccncc3)c(CO)s2)cc1 [SR-28550],60 nM
5,Cc1nc(C)c(-c2nc(Nc3ccc(S(N)(=O)=O)cc3)sc2CO)s1 [SR-28551],300 nM
6,Cc1nc(N)sc1-c1csc(Nc2ccc(S(N)(=O)=O)cc2)n1 [SR-28552],160 nM
7,O=S(=O)(Nc1ccccc1)c1ccc(Nc2nc(-c3ccncc3)cs2)cc1 [SR-29444],> 500 nM
8,Cc1nc(C)c(-c2csc(Nc3ccc(S(=O)(=O)Nc4ccccc4)cc3)n2)s1 [SR-29445],> 500 nM
9,Cc1ccc(NS(=O)(=O)c2ccc(Nc3nc(-c4ccncc4)cs3)cc2)cc1 [SR-29446],> 500 nM
10,Cc1ccc(NS(=O)(=O)c2ccc(Nc3nc(-c4sc(C)nc4C)cs3)cc2)cc1 [SR-29447],> 500 nM
11,O=S(=O)(Nc1ccc(F)cc1)c1ccc(Nc2nc(-c3ccncc3)cs2)cc1 [SR-29448],> 500 nM
12,Cc1nc(C)c(-c2csc(Nc3ccc(S(=O)(=O)Nc4ccc(F)cc4)cc3)n2)s1 [SR-29449],> 500 nM
13,NS(=O)(=O)c1ccc(Nc2nc(-c3ccc(S(N)(=O)=O)cc3)cs2)cc1 [SR-29450],15 nM
14,CNS(=O)(=O)c1ccc(Nc2nc(-c3ccc(S(N)(=O)=O)cc3)cs2)cc1 [SR-29451],20 nM
15,CC(O)c1cccc(Nc2nnc(Cc3ccncc3)c3ccccc23)c1 (centres unmarked) [SR-29684],2 nM
16,c1ccc2c(NCC3CCCO3)nnc(Cc3ccncc3)c2c1 (centres unmarked) [SR-30004],45 nM
17,c1coc(CNc2nnc(Cc3ccncc3)c3ccccc23)c1 [SR-30005],15 nM
18,c1ccc2[nH]c(CNc3nnc(Cc4ccncc4)c4ccccc34)cc2c1 [SR-30006],30 nM
19,c1ccc2c(NCC3CCOCC3)nnc(Cc3ccncc3)c2c1 [SR-30008],8 nM
20,c1ccc2oc(Nc3nnc(Cc4ccncc4)c4ccccc34)nc2c1 [SR-30010],2 nM
21,c1ccc2oc(CNc3nnc(Cc4ccncc4)c4ccccc34)cc2c1 [SR-30011],2 nM
